The source of these data is patent US20200199097A1, “POMALIDOMIDE DERIVATIVE AND PREPARATION METHOD THEREFOR” (NANJING NORATECH PARMACEUTICALS CO., LTD, priority 2017, published 2020).

Series [1] is described as follows: Determination of solubility in water at room temperature by HPLC. It counts as physicochemical. Conditions: saturated solubility not determined; for solubility: thermodynamic from solid, read-out: Minimum solubility in water at room temperature. The procedure:
1 mg of compound 1 was mixed with 1 mL of water, stirred at room temperature, and completely dissolved, and the supernatant was taken as a test sample solution.
50 mg of the hydrochloride or tromethamine salt of the compound was mixed with 150 μl of water, stirred at room temperature, and completely dissolved, and the supernatant was taken as a test sample solution.
In this test, the saturated solubility of the sample is not determined, but an appropriate amount of the sample is selected to determine the solubility of the sample. […] However, the solubility of pomalidomide in water is about 0.01 mg/ml, which is much lower than the solubility of the compound of the present invention or the salt thereof.

Series [2] can be described thus: Determination of stability under different environmental conditions. Format: physicochemical. Here is the method: An appropriate amount of the sample was independently placed under different environmental conditions, and the percentage of the sample at day 0, 5, 10 or 30 was determined to evaluate the stability of the sample.
For series [3] the following is noted: cited from earlier work.

Structures are written as SMILES. In brackets after ≈: the same amount, converted by molar mass. Where a name gives a salt, the structure may show the parent alone. Read-outs that look alike come from different tables or passages of the source.

Turning to `CC(C)[C@H](N)C(=O)OCN1C(=O)CCC(N2C(=O)c3cccc(N)c3C2=O)C1=O` (some centres unmarked) [Compound 1], the “Minimum solubility in water at room temperature” value in series [1] amounted to 1 mg/mL.

Regarding `Nc1cccc2c1C(=O)N(C1CCC(=O)N(COP(=O)(O)O)C1=O)C2=O` (centres unmarked) [Ditromethamine salt of compound 11], the solubility (commonly the concentration that dissolves in the medium under given conditions) in series [1] is > 300 mg/mL. The “percentage of the sample” value in series [2] (Day 0) is listed as 99.9%; in series [2] (Day 5/40° C./60% RH/Dark), 92.8%; in series [2] (Day 5/60° C./75% RH/Dark) it was 15.6%; in series [2] (Day 5/Light), 99.5%; in series [2] (Day 5/RT/75% RH/Dark), 79.8%; in series [2] (Day 5/RT/92.5% RH/Dark), 78.4%.

With `CC(C)[C@H](N)C(=O)OCN1C(=O)CCC(N2C(=O)c3cccc(N)c3C2=O)C1=O` (some centres unmarked) [Hydrochloride salt of compound 1], the “Minimum solubility in water at room temperature” value in series [1] is >300 mg/mL. Further, the “percentage of the sample” value in series [2] (Day 0) was found to be 97.1%; in series [2] (Day 10/40° C./60% RH/Dark), 96.9%; in series [2] (Day 10/60° C./75% RH/Dark), 96.4%; in series [2] (Day 10/Light), 96.7%; in series [2] (Day 10/RT/75% RH/Dark) it was 96.8%; in series [2] (Day 10/RT/92.5% RH/Dark), 95.5%. Further, the “percentage of the sample” value in series [2] (Day 30/40° C./60% RH/Dark) was found to be 95.1%; in series [2] (Day 30/60° C./75% RH/Dark), 94.7%; in series [2] (Day 30/Light), 95.0%; in series [2] (Day 30/RT/75% RH/Dark) it was 96.1%; in series [2] (Day 30/RT/92.5% RH/Dark), 93.3%.

For `NCC(=O)OCN1C(=O)CCC(N2C(=O)c3cccc(N)c3C2=O)C1=O` (centres unmarked) [Hydrochloride salt of compound 2], the solubility in series [1] is > 300 mg/mL. Moreover, the “percentage of the sample” value in series [2] (Day 0) stood at 96.1%; in series [2] (Day 10/40° C./60% RH/Dark) it was 43.5%; in series [2] (Day 10/60° C./75% RH/Dark) it was 13.3%; in series [2] (Day 10/RT/92.5% RH/Dark), 93.3%.

`C[C@H](N)C(=O)OCN1C(=O)CCC(N2C(=O)c3cccc(N)c3C2=O)C1=O` (some centres unmarked) [Hydrochloride salt of compound 3]: in series [1], the solubility is > 300 mg/mL.

For the molecule `CC(C)C[C@H](N)C(=O)OCN1C(=O)CCC(N2C(=O)c3cccc(N)c3C2=O)C1=O` (some centres unmarked) [Hydrochloride salt of compound 4], the solubility in series [1] is > 300 mg/mL.

`CC[C@H](C)[C@H](N)C(=O)OCN1C(=O)CCC(N2C(=O)c3cccc(N)c3C2=O)C1=O` (some centres unmarked) [Hydrochloride salt of compound 5]: the solubility in series [1] is > 300 mg/mL.

With `Nc1cccc2c1C(=O)N(C1CCC(=O)N(COC(=O)[C@@H]3CCCN3)C1=O)C2=O` (some centres unmarked) [Hydrochloride salt of compound 6], the solubility in series [1] was > 300 mg/mL.

On to `Nc1cccc2c1C(=O)N(C1CCC(=O)N(COC(=O)[C@@H](N)Cc3ccccc3)C1=O)C2=O` (some centres unmarked) [Hydrochloride salt of compound 7], for which, in series [1], the solubility was > 300 mg/mL.

Take `Nc1cccc2c1C(=O)N(C1CCC(=O)NC1=O)C2=O` (centres unmarked) [Pomalidomide]: the solubility in series [3] (0.1 mol/L hydrochloric acid) is 0.0189 mg/mL (≈ 69.2 µM); in series [3] (acetate buffer (pH 4.5)) it was 0.0187 mg/mL (≈ 68.4 µM); in series [3] (phosphate buffer (pH 6.8)), 0.017 mg/mL (≈ 62.2 µM); in series [3] (purified water), 0.0178 mg/mL (≈ 65.1 µM). The “solubility of pomalidomide in water” value in series [3] (water) is “about 0.01 mg/ml”.
